Where two headings read alike, the source gives them in different places.
Columns and labels:
[1] = per 1 mg, according to the National Formulary, cited from earlier work
[2] = test system: cultured endothelial cells; conditions: vitamin E added to the cellular preparation; cited from earlier work
[3] = double-blind protocols and other large studies, even at high doses; cited from earlier work
[4] = test system: DM individuals with the Hp 2-2 genotype; experiment: ICARE study: randomized placebo-controlled trial of vitamin E, cardiovascular events (MI, stroke, CVD death); assay type: in vivo, human
Excerpt: The study protocol of the ICARE study involves the following: participants were drawn from 47 primary health clinics of the […] Health Services in the northern sector of Israel. […] These Hp 2-2 individuals were randomly assigned to treatment with either vitamin E or placebo. The major study outcomes (MI, stroke, CVD death) were identified prospectively in this population over an 18 month period. A preplanned secondary analysis of ICARE was to assess the ability of vitamin E therapy to influence outcomes in those ICARE participants who were also taking statins. Statin use as prospectively defined in ICARE was based on the use of statins by the participant in at least eight of the twelve months preceding enrollment of the participant in the study. The decision to use statins for a particular participant was under the discretion of the patient's primary care physician and was in no way influenced by the patient's participation in the ICARE study […] However, only about half of the Hp 2-2 DM participants in ICARE received statin therapy. […] Of the 801 Hp 2-2 individuals taking […] cohort, 386 were randomized to vitamin E and 415 to placebo. There was no significant difference in the baseline characteristics, concurrent medications, or diabetes characteristics between those individuals taking statins who were randomized to placebo or vitamin E.

[5] = animal studies; cited from earlier work

Cc1c(C)c2c(c(C)c1O)CCC(C)(CCCC(C)CCCC(C)CCCC(C)C)O2 (racemic) [dl-alpha-tocopherol]
specific activity (IU per milligram) [1]: 1.10 IU

CC(=O)Oc1c(C)c(C)c2c(c1C)CC[C@@](C)(CCC[C@H](C)CCC[C@H](C)CCCC(C)C)O2 (racemic) [dl-alpha-tocopheryl acetate]
specific activity (IU per milligram) ([1]; listed as all-rac-α-tocopherol acetate): 1.00 IU

Cc1c(C)c2c(c(C)c1O)CC[C@@](C)(CCC[C@H](C)CCC[C@H](C)CCCC(C)C)O2 [d-alpha-tocopherol]
specific activity (IU per milligram) [1]: 1.49 IU

CC(=O)Oc1c(C)c(C)c2c(c1C)CC[C@@](C)(CCC[C@H](C)CCC[C@H](C)CCCC(C)C)O2 [d-alpha-tocopheryl acetate]
specific activity (IU per milligram) ([1]; listed as RRR-.alpha-tocopherol acetate): 1.36 IU

alpha-tocopherol [vitamin E]
oxidative modification of LDL [2]: totally inhibited
side effects [3]: few side effects
event rate (MI, stroke, CVD death) ([4]; Hp 2-2 DM individuals taking statins (at least eight of the twelve months preceding enrollment), randomized to vitamin E, 18 month period): 1.3%
hazard ratio [HR] vs placebo ([4]; Hp 2-2 DM individuals taking statins, vitamin E vs placebo, 95% CI 0.15-0.83, p=0.017 by log-rank): 0.31
reduction in CVD events ([4]; all Hp 2-2 DM participants in ICARE, vitamin E vs placebo): 50%
event rate (MI, stroke, CVD death) ([4]; statin use widened to at least one of the twelve months preceding enrollment, p=0.013 vs placebo): 1.7%
carcinogenicity / teratogenicity [5]: not carcinogenic or teratogenic

From patent US20090137617A1, “USE OF HAPTOGLOBIN GENOTYPING IN DIAGNOSIS AND TREATMENT OF CARDIOVASCULAR DISEASE” (priority 2007, published 2009)
